The values below come from article PMC12551991, “Inheritance and enzymatic basis of anthocyanin malonylation in Fragaria × ananassa” (The Plant Journal, 2025).

What all share (test): LC-MS malonyltransferase assay, non-linear Michaelis-Menten fit
Type in all cases: biochemical, Fragaria × ananassa
Details in all cases: potassium phosphate pH 7.0, 30°C, 30 min

For one test, the system named is T1, MAT1C (FaMAT1C).
T1 construct: gene MAT1; no tag removal described
From the text:
LC-MS malonyltransferase assay, non-linear Michaelis-Menten fit on MAT1C (FaMAT1C)

A further test relates to T2, MAT4C1/S1 (FaMAT4C1).
T2 construct: gene MAT4; no tag removal described
From the text:
LC-MS malonyltransferase assay, non-linear Michaelis-Menten fit on MAT4C1/S1 (FaMAT4C1)

Another test has as its system T3, MAT1S (FaMAT1S).
T3 construct: gene MAT1; no tag removal described
From the text: LC-MS malonyltransferase assay, non-linear Michaelis-Menten fit on MAT1S (FaMAT1S)

The test system of another test is T4, MAT2C1/S1 (MAT2S1).
T4 construct: gene MAT2; no tag removal described
The text has this:
LC-MS malonyltransferase assay, non-linear Michaelis-Menten fit on MAT2C1/S1 (MAT2S1)

A further test has as its system T5, MAT2C2/S2 (MAT2S2).
T5 construct: gene MAT2; no tag removal described
The text has this: LC-MS malonyltransferase assay, non-linear Michaelis-Menten fit on MAT2C2/S2 (MAT2S2)

[1] abbreviates: acceptor, co-substrate malonyl-CoA.
Setting [2] is: donor, co-substrate quercetin-3-glucoside.

As usually defined, the Km is the substrate concentration at which the rate is half of its maximum. Consider `OC[C@H]1O[C@@H](Oc2cc3c(O)cc(O)cc3[o+]c2-c2ccc(O)c(O)c2)[C@H](O)[C@@H](O)[C@@H]1O` [Cyanidin‐3‐glucoside], for which the Michaelis constant (Km) in the test on MAT1C (FaMAT1C) (setting [1]) came to 17 ± 3 µM; in the test with MAT4C1/S1 (FaMAT4C1) (setting [1]), 63 ± 30 µM; in the test with MAT1S (FaMAT1S) (setting [1]), 11 ± 3 µM.

For `O=c1c(O[C@@H]2O[C@H](CO)[C@@H](O)[C@H](O)[C@H]2O)c(-c2ccc(O)cc2)oc2cc(O)cc(O)c12` [Kaempferol‐3‐glucoside], the Michaelis-Menten constant (Km) is 790 ± 300 µM in the test with MAT2C1/S1 (MAT2S1) (setting [1]), 150 ± 40 µM with MAT1C (FaMAT1C) (setting [1]), 250 ± 80 µM in the test with MAT4C1/S1 (FaMAT4C1) (setting [1]) and 300 ± 60 µM in the test with MAT1S (FaMAT1S) (setting [1]).

Consider `CC(C)(COP(=O)(O)OP(=O)(O)OC[C@H]1O[C@@H](n2cnc3c(N)ncnc32)[C@H](O)[C@@H]1OP(=O)(O)O)[C@@H](O)C(=O)NCCC(=O)NCCSC(=O)CC(=O)O` [Malonyl‐CoA], for which the Km in the test on MAT2C1/S1 (MAT2S1) (setting [2]) turned out to be 22 ± 10 µM; with MAT1C (FaMAT1C) (setting [2]) it was 700 ± 200 µM; in the test with MAT4C1/S1 (FaMAT4C1) (setting [2]), 410 ± 200 µM; in the test with MAT2C2/S2 (MAT2S2) (setting [2]), 24 ± 20 µM; with MAT1S (FaMAT1S) (setting [2]), 450 ± 200 µM.

On to `OC[C@H]1O[C@@H](Oc2cc3c(O)cc(O)cc3[o+]c2-c2ccc(O)cc2)[C@H](O)[C@@H](O)[C@@H]1O` [Pelargonidin‐3‐glucoside], for which the Km amounted to 270 ± 100 µM in the test on MAT1C (FaMAT1C) (setting [1]), 390 ± 200 µM with MAT4C1/S1 (FaMAT4C1) (setting [1]) and 400 ± 200 µM in the test on MAT1S (FaMAT1S) (setting [1]).

In the case of `O=c1c(O[C@@H]2O[C@H](CO)[C@@H](O)[C@H](O)[C@H]2O)c(-c2ccc(O)c(O)c2)oc2cc(O)cc(O)c12` [Quercetin‐3‐glucoside], the Km with MAT2C1/S1 (MAT2S1) (setting [1]) is 180 ± 50 µM; with MAT1C (FaMAT1C) (setting [1]) it was 310 ± 100 µM; in the test with MAT4C1/S1 (FaMAT4C1) (setting [1]), 220 ± 100 µM; in the test with MAT2C2/S2 (MAT2S2) (setting [1]), 180 ± 60 µM; in the test on MAT1S (FaMAT1S) (setting [1]), 300 ± 100 µM.
